The data set is described as follows: Safety assessments (adverse events) in healthy subjects. In kind it is in vivo, human. Particulars: Part A, fruquintinib 5 mg alone or with itraconazole, healthy subjects. The protocol:
Safety was assessed by evaluation of adverse events (AEs), serious AEs, AEs of special interest, physical examinations, vital signs, single 12‐lead electrocardiograms and cardiac monitoring, and clinical laboratory data. All AEs were coded using the Medical Dictionary for Regulatory Activities Version 23.0, and their severity was graded using the National Cancer Institute Common Terminology Criteria for Adverse Events Version 5.0.

SMILES strings stand for the structures.

In the case of `CNC(=O)c1c(C)oc2cc(Oc3ncnc4cc(OC)c(OC)cc34)ccc12` [Fruquintinib], the adverse events result is on record as “no AEs reported”.

The record behind these values is publication PMC12314110, “Evaluation of Potential Effects of CYP3A Inhibition and CYP3A Induction on the Pharmacokinetics of Fruquintinib in Healthy Subjects” (Clinical Pharmacology in Drug Development, 2025).
